Data on 33 compounds can be found in ChEMBL document CHEMBL3227931, “10-(Alkylamino)-4H-thieno[3,4-b][1,5]benzodiazepines. A novel class of potential neuroleptic agents” (J Med Chem, 1979).

Calls of active or inactive are those of the source. The rule behind the calls is not given here.

The test system of data set [1] is Rattus norvegicus. The data set can be described thus: Neuroleptic activity in po dosed rat assessed as concentration required to cause 50% reduction of motor activity. It counts as functional.
The subject of data set [2] is Mus musculus. The data set can be described thus: Neuroleptic activity in po dosed mouse assessed as inhibition of d-amphetamine sulfate-induced lethality administered for 0.5 hrs followed by d-amphetamine sulfate challenge measured after 24 hrs. It counts as functional.
The test system of data set [3] is Mus musculus. The data set can be described thus: Antidepressant activity in mouse assessed as inhibition of tetrabenazine hexamate-induced depression at 25 mg/kg, po administered 1 hr followed by tetrabenazine hexamate challenge measured after 30 mins. It counts as functional, organism-based. Details: dose 25 mg/kg.
Data set [4] concerns Rattus norvegicus. The data set can be described thus: Induction of catalepsy in po dosed rat measured for 0.5 to 18 hrs. In kind it is organism-based. Particulars: in vivo.
The test system of data set [5] is Mus musculus. Put plainly: Antidepressant activity in po dosed mouse assessed as inhibition of tetrabenazine hexamate-induced depression administered 1 hr followed by tetrabenazine hexamate challenge measured after 30 mins. It counts as functional. Particulars: read-out: MED.
Data set [6] has as its system Mus musculus. The data set can be described thus: Neuroleptic activity in mouse assessed as inhibition of d-amphetamine sulfate-induced lethality at 20 mg/kg, ip administered for 0.5 hrs followed by d-amphetamine sulfate challenge measured after 24 hrs. It counts as functional, organism-based. Details: dose 20 mg/kg.
The subject of data set [7] is Rattus norvegicus. Put plainly: Neuroleptic activity in rat assessed as reduction of motor activity at 50 mg/kg, ip. It counts as functional, organism-based. Details: dose 50 mg/kg.

As for `CN(C)C1=Nc2ccccc2Nc2cscc21`, in the data set on Rattus norvegicus [1], the MDD50 was found to be 26.5 mg/kg.
The ED50 is the dose at which the effect has come halfway, by size or by number of responders. For the compound `CN1CCN(C2=Nc3cc(Cl)ccc3Nc3ccccc32)CC1` [CLOZAPINE], the ED50 in the data set with Mus musculus [2] stood at 2 mg/kg; with Rattus norvegicus [4] it was 76 mg/kg. Moreover, the inhibition result in the data set with Mus musculus [3] is “inactive”. Besides, the MDD50 in the data set with Rattus norvegicus [1] came to 21 mg/kg.
As for `CN1CCN(C2=Nc3ccc(Cl)cc3N(C)c3cscc32)CC1`, the minimal effective dose with Mus musculus [5] is 12.5 mg/kg. Further, in the data set on Mus musculus [6], the inhibition result was “inactive”.
For `CC(=O)OCCN1CCN(C2=Nc3cc(Cl)ccc3N(C)c3cscc32)CC1.O=C(O)/C=C/C(=O)O`, the ED50 in the data set with Mus musculus [2] stood at 3.2 mg/kg. In addition, the inhibition result in the data set on Mus musculus [3] is “inactive”. Further, in the data set on Rattus norvegicus [1], the MDD50 was found to be 26.7 mg/kg.
As to `Cc1cc2c(cc1C)N(C)c1cscc1C(N1CCN(C)CC1)=N2.O=C(O)/C=C/C(=O)O`, the inhibition entry with Mus musculus [3] and in the data set with Mus musculus [6] was “inactive” throughout. For the same compound, the MDD50 with Rattus norvegicus [1] was found to be 58 mg/kg.
In the case of `CN1CCN(C2=Nc3cc(Cl)c(Cl)cc3N(C)c3cscc32)CC1.O=C(O)/C=C/C(=O)O`, the ED50 in the data set on Mus musculus [2] came to 8 mg/kg. In addition, the inhibition result in the data set with Mus musculus [3] is “inactive”. For the same compound, the MDD50 in the data set with Rattus norvegicus [1] worked out at 35.9 mg/kg.
Consider `CN1CCN(C2=Nc3ccccc3N(C)c3c2csc3Cl)CC1.O=C(O)/C=C/C(=O)O`, for which the outcome in the data set with Rattus norvegicus [7] was inactive. In the data set on Mus musculus [5], the minimal effective dose was found to be 3.1 mg/kg. Besides, the inhibition result in the data set with Mus musculus [6] is “inactive”.
Turning to `CCN1CCN(C2=Nc3ccccc3N(CC)c3cscc32)CC1.O=C(O)/C=C/C(=O)O`, the minimal effective dose with Mus musculus [5] was found to be 25 mg/kg. For the same compound, in the data set on Rattus norvegicus [1], the MDD50 is 28 mg/kg.
Consider `Cc1cc2c(cc1C)Nc1cscc1C(N1CCN(C)CC1)=N2`, for which the MDD50 in the data set with Rattus norvegicus [1] stood at 26.2 mg/kg.
With `CN(C)CCCN1c2ccccc2Sc2ccc(Cl)cc21` [CHLORPROMAZINE], the ED50 in the data set on Mus musculus [2] is 0.6 mg/kg; in the data set on Rattus norvegicus [4] it was 7 mg/kg. The inhibition result with Mus musculus [3] was “inactive”. Also, the MDD50 with Rattus norvegicus [1] worked out at 2 mg/kg.
In the case of `CCN1c2ccccc2N=C(N2CCN(C)CC2)c2cscc21.O=C(O)/C=C/C(=O)O`, the ED50 with Mus musculus [2] was found to be 5.7 mg/kg. For the same compound, the minimal effective dose with Mus musculus [5] was 6.25 mg/kg. In addition, the MDD50 with Rattus norvegicus [1] was determined as 23 mg/kg.
As to `CCCN1CCN(C2=Nc3ccccc3Nc3cscc32)CC1`, the ED50 with Mus musculus [2] is 6 mg/kg. In addition, the MDD50 in the data set with Rattus norvegicus [1] worked out at 27 mg/kg.
Take `CN1c2ccc(Cl)cc2N=C(N2CCN(CCO)CC2)c2cscc21.Cl`: the ED50 with Mus musculus [2] is 2 mg/kg; with Rattus norvegicus [4], 13 mg/kg. Moreover, the inhibition result in the data set on Mus musculus [3] is “inactive”. In the data set with Rattus norvegicus [1], the MDD50 was determined as 20.4 mg/kg.
As to `CN1c2ccccc2N=C(N2CCNCC2)c2cscc21.O=C(O)/C=C/C(=O)O`, the outcome in the data set with Rattus norvegicus [7] was inactive. Further, the minimal effective dose with Mus musculus [5] worked out at 3.1 mg/kg. Also, the inhibition entry with Mus musculus [6] was “inactive”.
`CN1CCN(C2=Nc3ccccc3Nc3cscc32)CC1`: the ED50 with Mus musculus [2] was 6 mg/kg; in the data set with Rattus norvegicus [4], 11 mg/kg. For the same compound, the MDD50 with Rattus norvegicus [1] came to 6.1 mg/kg.
Consider `Cc1ccc2c(c1)Nc1cscc1C(N1CCN(C)CC1)=N2`, for which the ED50 in the data set with Mus musculus [2] was determined as 5.8 mg/kg. The MDD50 in the data set on Rattus norvegicus [1] came out at 9 mg/kg.
With `CN1c2ccccc2N=C(N2CCN(CCO)CC2)c2cscc21.O=C(O)/C=C/C(=O)O`, the minimal effective dose in the data set with Mus musculus [5] turned out to be 12.5 mg/kg. Besides, the MDD50 in the data set on Rattus norvegicus [1] amounted to 21.3 mg/kg. Besides, the inhibition result with Mus musculus [6] is “inactive”.
Consider `CCCN1CCN(C2=Nc3cc(Cl)ccc3N(C)c3cscc32)CC1.O=C(O)/C=C/C(=O)O`, for which the inhibition entry in the data set with Mus musculus [3] and with Mus musculus [6] was “inactive” throughout. Moreover, the MDD50 with Rattus norvegicus [1] came to 24 mg/kg.
With `CCN1CCN(C2=Nc3ccccc3N(C)c3cscc32)CC1.O=C(O)/C=C/C(=O)O`, in the data set on Mus musculus [5], the minimal effective dose was found to be 6.25 mg/kg.
For the compound `CN1CCN(C2=Nc3cc(Cl)ccc3Nc3cscc32)CC1`, the MDD50 with Rattus norvegicus [1] stood at 13.9 mg/kg. Moreover, the ED50 in the data set on Rattus norvegicus [4] stood at 16 mg/kg.
For the compound `CN1CCN(C2=Nc3cc(Cl)ccc3N(C)c3cscc32)CC1.O=C(O)/C=C/C(=O)O`, the ED50 in the data set on Mus musculus [2] turned out to be 1.4 mg/kg; in the data set with Rattus norvegicus [4], 40 mg/kg. In addition, the inhibition entry with Mus musculus [3] was “inactive”. Further, in the data set on Rattus norvegicus [1], the MDD50 was determined as 17 mg/kg.
Regarding `CN1CCN(C2=Nc3ccc(Cl)cc3Nc3cscc32)CC1`, the MDD50 with Rattus norvegicus [1] was 12.3 mg/kg. This compound also had an ED50 with Rattus norvegicus [4] of 16 mg/kg. Moreover, the inhibition result with Mus musculus [6] was “inactive”.
As for `CCN1CCN(C2=Nc3cc(Cl)ccc3N(C)c3cscc32)CC1.O=C(O)/C=C/C(=O)O`, the ED50 in the data set with Mus musculus [2] is 1.1 mg/kg. In addition, the inhibition result in the data set on Mus musculus [3] is “inactive”. In addition, the MDD50 in the data set on Rattus norvegicus [1] was 7.3 mg/kg.
Turning to `Cc1cc2c(cc1C)Nc1cscc1C(N1CCCCC1)=N2`, the MDD50 in the data set with Rattus norvegicus [1] is 50 mg/kg. Besides, in the data set on Mus musculus [6], the inhibition entry was “inactive”.
As for `CCN1c2ccccc2N=C(N2CCN(CCO)CC2)c2cscc21.O=C(O)/C=C/C(=O)O`, the inhibition result in the data set with Mus musculus [3] is “inactive”. Also, in the data set on Rattus norvegicus [1], the MDD50 amounted to 50 mg/kg.
For the compound `CN(C)CCCN1c2ccccc2CCc2ccccc21` [IMIPRAMINE], the ED50 in the data set on Mus musculus [2] was more than 20 mg/kg. Also, the minimal effective dose with Mus musculus [5] amounted to 12 mg/kg. Moreover, the MDD50 in the data set with Rattus norvegicus [1] is more than 50 mg/kg.
As for `CCN1CCN(C2=Nc3ccccc3Nc3cscc32)CC1`, the MDD50 in the data set with Rattus norvegicus [1] turned out to be 6.3 mg/kg.
For `CN1CCN(C2=Nc3ccccc3N(C)c3cscc32)CC1.O=C(O)/C=C/C(=O)O`, in the data set on Mus musculus [2], the ED50 is 4.8 mg/kg. Also, in the data set with Mus musculus [5], the minimal effective dose worked out at 3.1 mg/kg. Also, the MDD50 in the data set on Rattus norvegicus [1] was 8.7 mg/kg.
On to `c1ccc2c(c1)N=C(NCCN1CCCCC1)c1cscc1N2`, for which the MDD50 in the data set with Rattus norvegicus [1] amounted to 37 mg/kg.
For the compound `CN1CCN(C2=Nc3ccccc3N(C)c3cscc32)CC1`, the ED50 with Mus musculus [2] worked out at 3.6 mg/kg; with Rattus norvegicus [4], 14 mg/kg. In addition, the minimal effective dose with Mus musculus [5] came to 3.1 mg/kg. In addition, the MDD50 with Rattus norvegicus [1] turned out to be 12 mg/kg.
Regarding `Cc1cc2c(cc1C)Nc1cscc1C(NCCN1CCCCC1)=N2`, in the data set on Rattus norvegicus [1], the MDD50 turned out to be 50 mg/kg. Moreover, the inhibition result in the data set on Mus musculus [6] is “inactive”.
`COc1ccc2c(c1)Nc1cscc1C(N1CCN(C)CC1)=N2`: the results for the ED50 in the data set on Mus musculus [2] and with Rattus norvegicus [4] were 1.1 mg/kg and 15 mg/kg, respectively. The MDD50 in the data set on Rattus norvegicus [1] worked out at 16.1 mg/kg.
Turning to `OCCN1CCN(C2=Nc3ccccc3Nc3cscc32)CC1`, the MDD50 in the data set on Rattus norvegicus [1] came to 33.1 mg/kg.
